Test results as given in patent US10597388B2, “Pyridazinone herbicides” (FMC CORPORATION, priority 2014, dated 2020).

Legend:
Assay in all cases: Test D controlled growth environment herbicide test, pre- and postemergence
Type in all cases: in vivo
[1] = system: barley, spring (spring barley, Hordeum vulgare)
Procedure, shortened: (§1)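 Pre-emergence: seeds sown in silt loam soil were sprayed with compound in a non-phytotoxic solvent mix containing surfactant. Post-emergence: plants at 2 to 18 cm (1- to 4-leaf stage) in peat moss/vermiculite medium got the same formulation. Visual 0–100 rating versus controls after 14 to 21 d.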

[2] = system: blackgrass (Alopecurus myosuroides)
Procedure, shortened: as §1

[3] = system: bluegrass (annual bluegrass, Poa annua)
Procedure, shortened: as §1

[4] = system: chamomile (scentless chamomile, Matricaria inodora)
Procedure, shortened: as §1

[5] = system: field poppy (Papaver rhoeas)
Procedure, shortened: as §1

[6] = system: foxtail, green (green foxtail, Setaria viridis)
Procedure, shortened: as §1

[7] = system: lambsquarters (Chenopodium album)
Procedure, shortened: as §1

[8] = system: mustard, wild (wild mustard, Sinapis arvensis)
Procedure, shortened: as §1

[9] = system: oilseed rape (Brassica napus)
Procedure, shortened: as §1

[10] = system: ryegrass, Italian (Italian ryegrass, Lolium multiflorum)
Procedure, shortened: as §1

[11] = system: speedwell (bird's-eye speedwell, Veronica persica)
Procedure, shortened: as §1

[12] = system: wheat, spring (spring wheat, Triticum aestivum)
Procedure, shortened: as §1

[13] = system: wheat, winter (winter wheat, Triticum aestivum)
Procedure, shortened: as §1

[14] = Postemergence, 31 g ai/ha, scale 0 to 100 (0 no effect, 100 complete control)
[15] = Postemergence, 125 g ai/ha, visual rating on scale 0 (no effect) to 100 (complete control), 14 to 21 d
[16] = Postemergence, 250 g ai/ha, scale 0 to 100 (0 no effect, 100 complete control)
[17] = Preemergence, 62 g ai/ha, scale 0 to 100 (0 no effect, 100 complete control)
[18] = Preemergence, 125 g ai/ha, scale 0 to 100 (0 no effect, 100 complete control)
[19] = Preemergence, 250 g ai/ha, scale 0 to 100 (0 no effect, 100 complete control)
[20] = postemergence, 62 g ai/ha, scale 0 to 100, 0 no effect, 100 complete control

Structure (SMILES): CCOC(=O)Oc1c(C)nn(C)c(=O)c1-c1c(C)sc2c(C)cc(C)cc12 [Compound 83]
- Barley, Spring plant response rating [1, 14]: 0
- Plant response rating, Barley, Spring [1, 15]: 5
- Plant response rating, Barley, Spring [1, 16]: 10
- Plant response rating (scale of 0 to 100), Barley, Spring ([1]; Preemergence, 31 g ai/ha): 0
- Plant response rating, Barley, Spring [1, 17]: 0
- Plant response rating, Barley, Spring [1, 18]: 0
- Plant response rating, Barley, Spring [1, 19]: 5
- Plant response rating, Barley, Spring [1, 20]: 5
- Blackgrass plant response rating [2, 14]: 65
- Plant response rating, Blackgrass [2, 15]: 75
- Plant response rating, Blackgrass [2, 16]: 80
- Plant response rating (scale of 0 to 100), Blackgrass ([2]; Preemergence, 31 g ai/ha): 20
- Plant response rating, Blackgrass [2, 17]: 60
- Plant response rating, Blackgrass [2, 18]: 70
- Plant response rating, Blackgrass [2, 19]: 85
- Plant response rating, Blackgrass [2, 20]: 70
- Bluegrass plant response rating [3, 14]: 0
- Plant response rating, Bluegrass [3, 15]: 15
- Plant response rating, Bluegrass [3, 16]: 25
- Plant response rating (scale of 0 to 100), Bluegrass ([3]; Preemergence, 31 g ai/ha): 15
- Plant response rating, Bluegrass [3, 17]: 15
- Plant response rating, Bluegrass [3, 18]: 35
- Plant response rating, Bluegrass [3, 19]: 35
- Plant response rating, Bluegrass [3, 20]: 10
- Chamomile plant response rating [4, 14]: 95
- Plant response rating, Chamomile [4, 15]: 100
- Plant response rating, Chamomile [4, 16]: 100
- Plant response rating, Chamomile [4, 20]: 100
- Field Poppy plant response rating [5, 14]: 100
- Plant response rating, Field Poppy [5, 15]: 100
- Plant response rating, Field Poppy [5, 16]: 100
- Plant response rating (scale of 0 to 100), Field Poppy ([5]; Preemergence, 31 g ai/ha): 100
- Plant response rating (scale of 0 to 100), Field Poppy ([5]; Preemergence, 62 g ai/ha): 100
- Plant response rating, Field Poppy [5, 18]: 100
- Plant response rating, Field Poppy [5, 19]: 100
- Plant response rating, Field Poppy [5, 20]: 100
- Foxtail, Green plant response rating [6, 14]: 75
- Plant response rating, Foxtail, Green [6, 15]: 90
- Plant response rating, Foxtail, Green [6, 16]: 100
- Plant response rating (scale of 0 to 100), Foxtail, Green ([6]; Preemergence, 31 g ai/ha): 15
- Plant response rating (scale of 0 to 100), Foxtail, Green ([6]; Preemergence, 62 g ai/ha): 50
- Plant response rating, Foxtail, Green [6, 18]: 100
- Plant response rating, Foxtail, Green [6, 19]: 100
- Plant response rating, Foxtail, Green [6, 20]: 90
- Lambsquarters plant response rating [7, 14]: 95
- Plant response rating, Lambsquarters [7, 15]: 100
- Plant response rating, Lambsquarters [7, 16]: 100
- Plant response rating (scale of 0 to 100), Lambsquarters ([7]; Preemergence, 31 g ai/ha): 95
- Plant response rating (scale of 0 to 100), Lambsquarters ([7]; Preemergence, 62 g ai/ha): 65
- Plant response rating, Lambsquarters [7, 18]: 100
- Plant response rating, Lambsquarters [7, 19]: 100
- Plant response rating, Lambsquarters [7, 20]: 100
- Mustard, Wild plant response rating [8, 14]: 25
- Plant response rating, Mustard, Wild [8, 15]: 65
- Plant response rating, Mustard, Wild [8, 16]: 70
- Plant response rating (scale of 0 to 100), Mustard, Wild ([8]; Preemergence, 31 g ai/ha): 0
- Plant response rating (scale of 0 to 100), Mustard, Wild ([8]; Preemergence, 62 g ai/ha): 0
- Plant response rating, Mustard, Wild [8, 18]: 35
- Plant response rating, Mustard, Wild [8, 19]: 25
- Plant response rating, Mustard, Wild [8, 20]: 25
- Oilseed Rape plant response rating [9, 14]: 65
- Plant response rating, Oilseed Rape [9, 15]: 75
- Plant response rating, Oilseed Rape [9, 16]: 95
- Plant response rating (scale of 0 to 100), Oilseed Rape ([9]; Preemergence, 31 g ai/ha): 5
- Plant response rating (scale of 0 to 100), Oilseed Rape ([9]; Preemergence, 62 g ai/ha): 5
- Plant response rating, Oilseed Rape [9, 18]: 10
- Plant response rating, Oilseed Rape [9, 19]: 10
- Plant response rating, Oilseed Rape [9, 20]: 70
- Ryegrass, Italian plant response rating [10, 14]: 80
- Plant response rating, Ryegrass, Italian [10, 15]: 90
- Plant response rating, Ryegrass, Italian [10, 16]: 90
- Plant response rating (scale of 0 to 100), Ryegrass, Italian ([10]; Preemergence, 31 g ai/ha): 40
- Plant response rating (scale of 0 to 100), Ryegrass, Italian ([10]; Preemergence, 62 g ai/ha): 75
- Plant response rating, Ryegrass, Italian [10, 18]: 90
- Plant response rating, Ryegrass, Italian [10, 19]: 100
- Plant response rating, Ryegrass, Italian [10, 20]: 85
- Speedwell plant response rating [11, 14]: 65
- Plant response rating, Speedwell [11, 15]: 75
- Plant response rating, Speedwell [11, 16]: 100
- Plant response rating (scale of 0 to 100), Speedwell ([11]; Preemergence, 31 g ai/ha): 70
- Plant response rating (scale of 0 to 100), Speedwell ([11]; Preemergence, 62 g ai/ha): 75
- Plant response rating, Speedwell [11, 18]: 100
- Plant response rating, Speedwell [11, 19]: 100
- Plant response rating, Speedwell [11, 20]: 70
- Wheat, Spring plant response rating [12, 14]: 0
- Plant response rating, Wheat, Spring [12, 15]: 5
- Plant response rating, Wheat, Spring [12, 16]: 20
- Plant response rating (scale of 0 to 100), Wheat, Spring ([12]; Preemergence, 31 g ai/ha): 0
- Plant response rating (scale of 0 to 100), Wheat, Spring ([12]; Preemergence, 62 g ai/ha): 0
- Plant response rating, Wheat, Spring [12, 18]: 10
- Plant response rating, Wheat, Spring [12, 19]: 35
- Plant response rating, Wheat, Spring [12, 20]: 0
- Wheat, Winter plant response rating [13, 14]: 0
- Plant response rating, Wheat, Winter [13, 15]: 5
- Plant response rating, Wheat, Winter [13, 16]: 10
- Plant response rating (scale of 0 to 100), Wheat, Winter ([13]; Preemergence, 31 g ai/ha): 0
- Plant response rating (scale of 0 to 100), Wheat, Winter ([13]; Preemergence, 62 g ai/ha): 0
- Plant response rating, Wheat, Winter [13, 18]: 5
- Plant response rating, Wheat, Winter [13, 19]: 25
- Plant response rating, Wheat, Winter [13, 20]: 0
